According to patent US9188584B2, “Capture agents and related compositions, methods and systems” (CALIFORNIA INSTITUTE OF TECHNOLOGY, priority 2008, dated 2015):
“And” between values parts separate entries of the source, which are not always exact repeats. Identical values can stand only once.

What was measured:
[1] = test system: b(h)CAII; experiment: Dot blot selectivity/sensitivity assay in porcine serum; format: binding; conditions: 0.1% serum
Description: Dot blots are a common method for detecting proteins. […] For a dot blot, the solution containing the protein of interest is simply dotted onto an absorbent membrane material (typically nitrocellulose). The capture agent (typically an antibody) is labeled with biotin molecule, and applied to the same spot. The spot is rinsed, and then horseradish peroxidase (HRP)-labeled streptavidin is added, binding to the biotin that is bound to the protein. Optical methods are typically utilized to detect this binding. For these tests, Biotin-PEG-NovaTag resin (0.48 mmol/g; Novabiochem) was utilized for bulk synthesis of C-terminal biotin-labeled multi-ligands. After resin cleavage, the crude biotinylated multi-ligand was precipitated with ether and then purified to >98% by C18 reversed phase HPLC. For a dot blot assay, the procedure was as follows: b(h)CAII antigens were prepared as 1 mg/mL stocks in PBS (pH 7.4). A dilution series of antigen was applied to a nitrocellulose membrane, typically ranging from 2 μg to 0.5 ng per spot. […] The membrane was then washed with TBS. […] After washing with TBS for 1 h, 1:3000 Streptavidin-HRP (Abcam, Cambridge, Mass.) prepared in 0.5% milk/TBS was added to the membrane and incubated for 1 h. […]

[2] = target: T1, bCAII (Bos taurus, UniProt P00921); experiment: KD determination by surface plasmon resonance (SPR), immobilized bCAII; design: species or system bovine; conditions: binding affinity to bCAII by SPR, 1:1 binding fit
T1 construct: The bCAII (C2522), from bovine erythrocytes, lyophilized powder; purchased Sigma-Aldrich C2522; host or cells: bovine erythrocytes
Excerpt: KD determination by surface plasmon resonance (SPR).

[3] = target: hCAII (Homo sapiens, UniProt P00918); experiment: biochemical
Description: KD determination by surface plasmon resonance (SPR). […] One flow cell of the biosensor surface (BIACORE CM5) was immobilized with bCAII following standard procedures using 0.25 mg/mL bCAII prepared in 10 mM sodium acetate (pH 5.0) buffer and a 1:1 solution of 0.1 mM NHS and 0.4 mM EDC (Papalia, G. A. et al., 2006). Similarly, a second flow cell was immobilized with hCAII following standard procedures using 0.25 mg/mL hCAII prepared in 10 mM sodium acetate (pH 5.5) buffer (Svedhem, S. et al., 2001). Immobilization levels of ˜4000 RU were achieved using a flow rate of 100 μL/min over 420 s. The remaining two flow cells were left underivatized, to correct for changes in bulk refractive index and to assess nonspecific binding. The running buffer was prepared to contain 10 mM HEPES+150 mM NaCl+0.05% Tween20+3% DMSO, and this buffer was used for all experiments. Prior to the peptide analyte experiment, 8 buffer-alone cycles were completed to establish baseline stabilization. Biligand samples were injected in a concentration series (5 μM to 2 nM) at 100 μL/min flow rate for 120-180 s across the four flow cells. Following background subtraction, the analyte response data was fitted for 1:1 binding affinity using the BiaEvaluation software. […]

T1 sequence (P00921 whole entry): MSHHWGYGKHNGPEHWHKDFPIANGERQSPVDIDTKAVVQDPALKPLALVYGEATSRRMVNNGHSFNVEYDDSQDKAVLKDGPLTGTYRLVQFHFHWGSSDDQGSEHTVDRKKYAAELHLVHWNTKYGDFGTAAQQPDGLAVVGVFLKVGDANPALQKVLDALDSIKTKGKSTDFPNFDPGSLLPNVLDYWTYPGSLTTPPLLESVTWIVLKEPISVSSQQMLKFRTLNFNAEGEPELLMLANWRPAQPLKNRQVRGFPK

Row | Compound | reduction of dot blot sensitivity relative to triligand [1] | Kd [2] | Kd [3]
1 | (D-Pra)-kwlwGl-Tz1-kfwlkl | > 10 fold |  | 
2 | CC[C@@H](C)[C@@H](NC(=O)[C@@H](CC(C)C)NC(=O)[C@@H](CC(N)=O)NC(=O)C(N)CCCCn1cc(C[C@@H](NC(C)=O)C(=O)N[C@H](CCCCN)C(=O)N[C@H](Cc2c[nH]c3ccccc23)C(=O)N[C@H](CC(C)C)C(=O)N[C@H](Cc2c[nH]c3ccccc23)C(=O)NCC(=O)N[C@H](CC(C)C)C(=O)N[C@H](Cc2cn(CCCCC(NC(C)=O)C(=O)N[C@H](CCCCN)C(=O)N[C@H](Cc3ccccc3)C(=O)N[C@H](Cc3c[nH]c4ccccc34)C(=O)N[C@H](CC(C)C)C(=O)N[C@H](CCCCN)C(=O)N[C@H](CC(C)C)C(=O)O)nn2)C(=O)N2CCCCC2)nn1)C(=O)N[C@@H](C(=O)N[C@H](Cc1ccccc1)C(=O)N[C@H](CCCNC(=N)N)C(N)=O)C(C)C (stereo partly drawn) [rfviln-Tz2-kwlwGl-Tz1-kfwlkl] |  | 60 nM and 64 nM | 45 nM
